According to patent publication US7915293B2, “Ubiquitin ligase inhibitors” (Rigel Pharmaceuticals, Inc., priority 2003, dated 2011):

Legend:
Parameters in all cases: key: “+” indicates that the compound exibits inhibitory activity; “−” indicates that low or no inhibitory activity was observed
A549 cells [1] = assay: Cell proliferation assay, photographic image analysis of proliferation, apoptosis and death (PAD assay), A549; type: cell-based; conditions: 6 concentrations tested
In short: (§1)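 Cells grown in RPMI with 5% FBS (2,000/well) and dosed 24 h after plating with 6.3-fold dilutions in duplicate (master plate 500× final, top 10 mM stock). After 48 h at 37 °C, cells formamide-fixed and DAPI-stained. Image analysis counted live, apoptotic and dead cells.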

[2] = target: E3 (His-APC11/APC2-"APC") (Homo sapiens, UniProt Q9NYG5+Q9UJX6); assay: Plate-based E3 ligase assay (APC FLAG), auto-ubiquitination; type: biochemical; conditions: for APC Flag (2 pt): 2 concentrations tested; for APC Flag 8 pt: 8 concentrations tested
E3 (His-APC11/APC2-"APC"), sequence (Q9NYG5 whole entry): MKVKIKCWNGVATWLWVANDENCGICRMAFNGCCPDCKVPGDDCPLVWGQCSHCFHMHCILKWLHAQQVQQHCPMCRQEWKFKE
E3 (His-APC11/APC2-"APC"), sequence (Q9UJX6 whole entry): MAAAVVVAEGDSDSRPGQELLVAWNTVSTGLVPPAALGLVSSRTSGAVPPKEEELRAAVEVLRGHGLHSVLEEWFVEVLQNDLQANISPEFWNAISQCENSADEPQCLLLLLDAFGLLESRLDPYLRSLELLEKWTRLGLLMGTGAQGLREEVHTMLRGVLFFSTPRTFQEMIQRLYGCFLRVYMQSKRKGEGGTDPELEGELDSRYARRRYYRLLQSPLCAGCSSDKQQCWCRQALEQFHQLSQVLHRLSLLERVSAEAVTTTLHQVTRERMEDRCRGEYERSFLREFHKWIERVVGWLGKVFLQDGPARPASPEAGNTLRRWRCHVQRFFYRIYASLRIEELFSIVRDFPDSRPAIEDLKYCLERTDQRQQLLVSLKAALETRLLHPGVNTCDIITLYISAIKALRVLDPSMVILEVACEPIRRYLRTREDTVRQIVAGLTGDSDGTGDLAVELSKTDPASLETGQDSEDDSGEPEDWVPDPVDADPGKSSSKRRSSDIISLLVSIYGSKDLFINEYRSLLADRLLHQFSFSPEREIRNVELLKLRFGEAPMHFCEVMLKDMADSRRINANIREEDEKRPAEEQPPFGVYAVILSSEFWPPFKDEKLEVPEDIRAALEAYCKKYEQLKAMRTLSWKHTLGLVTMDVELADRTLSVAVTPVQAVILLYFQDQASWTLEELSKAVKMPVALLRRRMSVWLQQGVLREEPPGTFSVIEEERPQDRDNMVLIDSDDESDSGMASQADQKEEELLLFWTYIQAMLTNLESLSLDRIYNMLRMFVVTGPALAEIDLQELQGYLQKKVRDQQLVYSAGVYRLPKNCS
In short: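 His-APC11/APC2 auto-ubiquitination was run in casein-blocked nickel plates for 1 h at room temperature, with E1 at 5 ng/well, UbcH5c at 20 ng/well and APC at 100 ng/well. Buffer was 62.5 mM Tris pH 7.6, 3 mM MgCl2, 1 mM DTT, 2.5 mM ATP and Flag-ubiquitin at 100 ng/well. Detection used anti-Flag/HRP chemiluminescence, and IC50 was typically from 6 or 8 concentrations versus a DMSO control.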

HeLa cells [3] = assay: Non-photographic proliferation analysis (Promega Cell titer Aqueous), HeLa; type: cell-based; conditions: 6 concentrations tested
Protocol: (§2) A549 (ATCC# CCL-185), HeLa (ATCC# CCL-2), HCT116 (ATCC# CCL-247), and H1299 (ATCC# CRL-5803) cells were maintained in T175 flasks following the ATCC recommended media and handling procedures. Flasks reaching approximately 70% confluency were trypsinized and resuspended in RPMI media (Cell-Gro catalog number 10-040-CM) modified to contain 5% FBS, 100 ug/mlPen/Strep (Cell-Gro catalog number 30-002-CL), and 0.3 mg/ml L-Glutamine (Cell-Gro catalog number 25-003-CL). A 20,000 cells/ml solution was made for plating. Cells were plated in black Packard 96 well plates by placing 100 μl per well (2,000 cells per well).
(§3) Compounds and additional media were added 24 hours after cell plating. A compound master plate was created with concentrations 500 times greater than the final concentration added to the cells. All compound testing was done in duplicate using 6.3 fold dilutions starting with 10 mM. All outside wells (and 4 internal wells) were DMSO controls. Taxol and at least one additional control were run on all plates. Three microliters of the compound master plate were added to deep well blocks containing 750 μl of RPMI media. One hundred microliters were transferred from the compound/media deep well blocks to the plated cells resulting in a 500 fold dilution of the compounds. Cells were grown at 37° C., 5% CO2 for 48 hours.
(§4) Some cell plates were treated with Promega Cell titer Aqueous 1 kit (promega—VWR catalog number G3580). In this case, 48 hours after the test compound were added, 100 μl of media were removed and 20 μl of cell titer reagent were added to all wells. Plates were incubated at 37° C. for 45 minutes prior to absorbance reads on the Wallac plate reader at 490 nm for 0.1 sec/well.

HeLa cells [4] = assay: Cell proliferation assay, photographic image analysis of proliferation, apoptosis and death (PAD assay), HeLa; type: cell-based; conditions: 6 concentrations tested
In short: as §1

A549 cells [5] = assay: Non-photographic proliferation analysis (Promega Cell titer Aqueous), A549; type: cell-based; conditions: 6 concentrations tested
Protocol: as §2, §3, §4

Row | SMILES | APC Flag (2 pt) [2] | APC Flag 8 pt [2] | PAD Assay, A549 6 pt (A549 cells [1]) | Cell Titer-Aqueous, HELA 6 pt (HeLa cells [3]) | PAD Assay, HELA 6 pt (HeLa cells [4]) | Cell Titer-Aqueous, A549 6 pt (A549 cells [5])
1 | COc1ccc(N(S(=O)(=O)c2cc(Cl)c(Oc3ccc([N+](=O)[O-])cc3Cl)c(Cl)c2)S(=O)(=O)c2cc(Cl)c(Oc3ccc([N+](=O)[O-])cc3Cl)c(Cl)c2)cc1Cl [Example 155, 3,5-dichloro-N-(3-chloro-4-methoxyphenyl)-4-(2-chloro-4-nitrophenoxy)-N-(1,3-dichloro-2-(2-chloro-4-nitrophenoxy)-5-sulfonylbenzene)benzenesulfonamide] |  | + | + | − |  | −
2 | Cc1cccc(C(C)C)c1NS(=O)(=O)c1cc(Cl)c(Oc2ccc([N+](=O)[O-])cc2Cl)c(Cl)c1 [Example 160, 3,5-dichloro-4-(2-chloro-4-nitrophenoxy)-N-(2-isopropyl-6-methylphenyl)benzene-sulfonamide] |  | + | + | + | + | +
3 | O=[N+]([O-])c1ccc(Oc2c(Cl)cc(S(=O)(=O)Nc3cccc4cc[nH]c34)cc2Cl)c(Cl)c1 [Example 168, 3,5-dichloro-4-(2-chloro-4-nitrophenoxy)-N-1H-indol-7-ylbenzenesulfonamide] |  | + | + | + | + | +
4 | O=[N+]([O-])c1ccc(Oc2c(Cl)cc(S(=O)(=O)Nc3cccc4c3oc3ccccc34)cc2Cl)c(Cl)c1 [Example 175, 3,5-dichloro-4-(2-chloro-4-nitrophenoxy)-N-dibenzo[b,d]furan-4-ylbenzenesulfonamide] |  | + |  | − |  | −
5 | O=[N+]([O-])c1ccc(Oc2c(Cl)cc(S(=O)(=O)Nc3cccc(-c4ccccc4)c3)cc2Cl)c(Cl)c1 [Example 179, N-biphenyl-3-yl-3,5-dichloro-4-(2-chloro-4-nitrophenoxy)benzenesulfonamide] |  | + |  | + |  | −
6 | COc1ccc(NS(=O)(=O)c2cc(Cl)c(Oc3ccc([N+](=O)[O-])cc3Cl)c(Cl)c2)c(OC)n1 [Example 206, 3,5-dichloro-4-(2-chloro-4-nitrophenoxy)-N-(2,6-dimethoxypyridin-3-yl)benzene-sulfonamide] |  | − |  | + |  | +
7 | O=[N+]([O-])c1ccc(Oc2c(Cl)cc(S(=O)(=O)Nc3cccnc3Cl)cc2Cl)c(Cl)c1 [Example 207, 3,5-dichloro-4-(2-chloro-4-nitrophenoxy)-N-(2-chloropyridin-3-yl)benzenesulfonamide] |  | + |  | + |  | +
8 | CC1(C)Oc2ccc(NS(=O)(=O)c3cc(Cl)c(Oc4ccc([N+](=O)[O-])cc4Cl)c(Cl)c3)cc2NC1=O [Example 213, 3,5-dichloro-4-(2-chloro-4-nitrophenoxy)-N-(2,2-dimethyl-3-oxo-3,4-dihydro-2H-1,4-benzoxazin-6-yl)benzenesulfonamide] |  | + |  | + |  | +
9 | O=[N+]([O-])c1ccc(Oc2c(Cl)cc(S(=O)(=O)Nc3ncccn3)cc2Cl)c(Cl)c1 [Example 222, 3,5-dichloro-4-(2-chloro-4-nitrophenoxy)-N-pyrimidin-2-ylbenzenesulfonamide] |  | + |  | − |  | −
10 | O=[N+]([O-])c1ccc(Oc2c(Cl)cc(S(=O)(=O)NC3Cc4ccccc4C3)cc2Cl)c(Cl)c1 [Example 224, 3,5-dichloro-4-(2-chloro-4-nitrophenoxy)-N-(2,3-dihydro-1H-inden-2-yl)benzene-sulfonamide] | − (2 pt) |  |  | + |  | +

Further lines, with some results ahead:

Row | APC Flag (2 pt) [2] | APC Flag 8 pt [2] | SMILES | PAD Assay, A549 6 pt (A549 cells [1]) | Cell Titer-Aqueous, HELA 6 pt (HeLa cells [3]) | PAD Assay, HELA 6 pt (HeLa cells [4]) | Cell Titer-Aqueous, A549 6 pt (A549 cells [5])
11 | − (2 pt) |  | CS(=O)(=O)c1cccc(NS(=O)(=O)c2cc(Cl)c(Oc3ccc([N+](=O)[O-])cc3Cl)c(Cl)c2)c1 [Compound 173, 3,5-dichloro-4-(2-chloro-4-nitrophenoxy)-N-[3-(methylsulfonyl)phenyl]benzenesulfonamide] | − | − | − | −
12 |  | − | COc1ccc(NS(=O)(=O)c2cc(Cl)c(Oc3ccc([N+](=O)[O-])cc3Cl)c(Cl)c2)cc1 [Compound 208] | + | + | + | +
13 |  | + | O=[N+]([O-])c1ccc(Oc2c(Cl)cc(S(=O)(=O)Nc3ccccc3I)cc2Cl)c(Cl)c1 [Compound 209] | + | + | + | +
14 |  | + | O=[N+]([O-])c1ccc(Oc2c(Cl)cc(S(=O)(=O)Nc3ccccc3Cl)cc2Cl)c(Cl)c1 [Example 156, 3,5-dichloro-4-(2-chloro-4-nitrophenoxy)-N-(2-chlorophenyl)benzenesulfonamide] |  | + | + | +
15 |  | + | O=[N+]([O-])c1ccc(Oc2c(Cl)cc(S(=O)(=O)Nc3cccc(Br)c3)cc2Cl)c(Cl)c1 [Example 159, N-(3-bromophenyl)-3,5-dichloro-4-(2-chloro-4-nitrophenoxy)benzenesulfonamide] | + | + | + | +
16 |  | + | O=[N+]([O-])c1ccc(Oc2c(Cl)cc(S(=O)(=O)Nc3ccsc3)cc2Cl)c(Cl)c1 [Example 165, 3,5-dichloro-4-(2-chloro-4-nitrophenoxy)-N-3-thienylbenzenesulfonamide] | + | + | + | +
17 |  | + | COc1ccc(NS(=O)(=O)c2cc(Cl)c(Oc3ccc([N+](=O)[O-])cc3Cl)c(Cl)c2)cc1OC [Example 170, 3,5-dichloro-4-(2-chloro-4-nitrophenoxy)-N-(3,4-dimethoxyphenyl)benzenesulfonamide] |  | + |  | +
18 |  | + | O=[N+]([O-])c1ccc(Oc2c(Cl)cc(S(=O)(=O)Nc3ccc4[nH]ccc4c3)cc2Cl)c(Cl)c1 [Example 174, 3,5-dichloro-4-(2-chloro-4-nitrophenoxy)-N-1H-indol-5-ylbenzenesulfonamide] | + | + | + | +
19 |  | + | N#Cc1ccc(NS(=O)(=O)c2cc(Cl)c(Oc3ccc([N+](=O)[O-])cc3Cl)c(Cl)c2)cc1 [Example 200, 3,5-dichloro-4-(2-chloro-4-nitrophenoxy)-N-(4-cyanophenyl)benzenesulfonamide] | + | + | + | +
20 |  | + | COc1ccc(NS(=O)(=O)c2cc(Cl)c(Oc3ccc([N+](=O)[O-])cc3Cl)c(Cl)c2)cc1Cl [Example 201, 3,5-dichloro-N-(3-chloro-4-methoxyphenyl)-4-(2-chloro-4-nitrophenoxy)benzene-sulfonamide] | + | + | + | +
21 |  | − | O=[N+]([O-])c1ccc(Oc2c(Cl)cc(S(=O)(=O)Nc3cccnc3)cc2Cl)c(Cl)c1 [Example 205, 3,5-dichloro-4-(2-chloro-4-nitrophenoxy)-N-pyridin-3-ylbenzenesulfonamide] |  | − |  | −
